Data taken from patent US20220218679A1, “NOVEL COMPOUNDS AND PHARMACEUTICAL COMPOSITIONS THEREOF FOR THE TREATMENT OF INFLAMMATORY DISORDERS” (Galapagos NV, priority 2019, published 2022).
Converted amounts (≈) assume the structure as drawn. Where two headings read alike, the source gives them in different places.

Legend:
Mouse Hepatocyte = assay: Metabolic stability in hepatocytes (mouse); assay type: in vitro ADME; conditions: 1 μM test compound, cryopreserved mouse hepatocytes
Method: 4.6. Metabolic Stability in Hepatocytes
The aim of this assay is to determine the metabolic stability of the compound in hepatocytes (cryopreserved) of different species. Low hepatocyte stability may result in the formation of unwanted metabolites, high clearance, and therefore is not desirable.
The decrease in parent was assessed by measuring the percentage remaining by LC-MS/MS analysis.
A 10 mM stock solution of test compound in DMSO was first diluted in DMSO to 3 mM, and then in modified Krebs-Henseleit buffer (Sigma, K3753) to 5 μM. This compound dilution was added to a suspension of pooled cryopreserved hepatocytes (BioreclamationIVT) at 37° C. under gentle shaking.
Final reaction conditions were: 1 μM of test compound, 0.03% DMSO, 0.5 million viable hepatocytes/mL, and 75 μL incubation volume.
Testosterone (1 μM) and 7-hydroxycoumarin (1 μM) were used, respectively as phase I and phase II metabolic reaction controls.
After 0, 10, 20, 45, 90, 120 and 180 min of incubation, the reaction was terminated with 225 μL of MeCN:MeOH (2:1) containing 100 ng/mL of diclofenac as analytical internal standard. Samples were mixed, centrifuged and the supernatant analyzed by LC-MS/MS.
The instrument responses (ratios of test compound and internal standard peak areas) were referenced to the zero time point samples (considered as 100%) in order to determine the percentage of compound remaining.
Plots of percentage compound remaining were used to determine the intrinsic clearance in the hepatocyte incubations using the following equations:
Scaled Clint [L/h/kg]=Clint[μL/min/10^6 cells]*#(10^6) cells/g liver*60*( 1/10^6) Scaled Clint unbound [L/h/kg]=Clint [L/h/kg]/Fu,inc where: fu,inc equals hepatocyte binding, derived from microsomal binding (fu,mic) by following equation: […]

Thermodynamic solubility = assay type: physicochemical; conditions: 37 °C, thermodynamic from solid
Text: 4.2. Thermodynamic Solubility
Poor solubility, in particular poor thermodynamic solubility can limit the absorption of compounds from the gastrointestinal tract which in turn may reduce oral bioavailability.
Thermodynamic solubility investigates the solubility of a compound as a saturated solution in equilibrium, by opposition to kinetic solubility, which measures the solubility of a metastable solution where supersaturation may occur and provide over estimation of the actual solubility of the compound. (Klein, 2010)
4.2.2. Thermodynamic Solubility—Protocol 2
In a 8 mL glass vial, 1-2 mg of dry matter of compound were added and stirred with the suitable buffers (Fed State Simulated Intestine Fluid, FeSSIF, or Fasted State Simulated Intestine Fluid, FaSSIF, or Fasted State Simulated Gastric Fluid, FaSSGF, or phosphate buffer pH 7.4) for 24 h at r.t. (for the buffer pH 7.4) or 37° C. (for the GI fluids). The concentration of the mixture was 1 mg/mL.
A volume of 1000 μL were sampled, centrifuged for 10 min at 10 000 rpm and 500 μL of the supernatant were filtered on captiva plate. The samples were diluted in duplicates in DMSO (F100 and F10). Then, a final dilution (F100) in 80/20 H2O/MeCN containing the internal standard (warfarin) was used for LCMS-MS analysis.
A standard curve was made starting from a 40,000 ng/mL stock in DMSO, freshly prepared from dry matter. Then, successive concentrations at 15,000, 11,000, 6,000, 2,500, 1,000, 375, 150 and 75 ng/mL in DMSO were prepared.
Three quality control samples were made: one of 10,000, 1,500 and 200 ng/mL in DMSO, also starting from the DMSO working stock solution at 40,000 ng/mL.
The standard curve and quality controls were diluted a F100 in 80/20 H2O/MeCN (with internal standard) and analyzed on LC/MS-MS (API4000 or API5500).
The samples were analyzed on LC-MS with a flow rate of 0.6 mL/min. The mobile phase A was 0.1% formic acid in water and the mobile phase B was 0.1% formic acid in 90% MeCN and 10% of H2O. The sample was run under positive or negative ion spray on Pursuit C18—5 μm (2.0×20 mm) column, from Agilent.
The ratio analyte/internal standard peaks areas of the standard curve were plotted in a graph and a linear or polynomial of the second order equation was used to calculate the unknown concentrations of the test compound.
Solubility values were reported in μg/mL.

[1] = Fasted State Simulated Gastric Fluid (FaSSGF), fassgf or other biorelevant, Fasted State Simulated Gastric Fluid, read-out: Tsol FaSSGF
[2] = Fasted State Simulated Intestine Fluid (FaSSIF), fassif, Fasted State Simulated Intestine Fluid, read-out: Tsol FaSSIF
[3] = Fed State Simulated Intestine Fluid (FeSSIF), fessif, Fed State Simulated Intestine Fluid, read-out: Tsol FeSSIF

COc1c(NC(=O)c2cccn(C3CC3)c2=O)cc2cc(CCC(C)(C)O)nn2c1C [Compound 13, 1-cyclopropyl-N-[2-(3-hydroxy-3-methyl-butyl)-6-methoxy-7-methyl-pyrazolo[1,5-a]pyridin-5-yl]-2-oxo-pyridine-3-carboxamide]
Mouse Hepatocyte stability (Perc. remaining at 90 min) (Mouse Hepatocyte): 87.8 Perc. | solubility thermodynamic at 24 h (Thermodynamic solubility; [1]): 8.45 µg/mL (≈ 19.9 µM) | solubility thermodynamic at 24 h (Thermodynamic solubility; [2]): 1.77 µg/mL (≈ 4.17 µM)

NC(=O)c1cn2nc(C3CCOCC3)cc2cc1NC(=O)c1cccc(C(F)F)n1 [Compound 16, 5-[[6-(difluoromethyl)pyridine-2-carbonyl]amino]-2-tetrahydropyran-4-yl-pyrazolo[1,5-a]pyridine-6-carboxamide]
Mouse Hepatocyte stability (Perc. remaining at 90 min) (Mouse Hepatocyte): 51.75 Perc. | solubility thermodynamic at 24 h (Thermodynamic solubility; [2]): 1.29 µg/mL (≈ 3.11 µM)

CCOc1cn2nc(CCC(C)(C)O)cc2cc1NC(=O)c1cccn(C2CC2)c1=O [Compound 17, 1-cyclopropyl-N-[6-ethoxy-2-(3-hydroxy-3-methyl-butyl)pyrazolo[1,5-a]pyridin-5-yl]-2-oxo-pyridine-3-carboxamide]
Mouse Hepatocyte stability (Perc. remaining at 90 min) (Mouse Hepatocyte): 93 Perc. | solubility thermodynamic at 24 h (Thermodynamic solubility; [1]): 75.7 µg/mL (≈ 178 µM) | solubility thermodynamic at 24 h (Thermodynamic solubility; [2]): 24.6 µg/mL (≈ 58 µM) | solubility thermodynamic at 24 h (Thermodynamic solubility; [3]): 81 µg/mL (≈ 191 µM)

CCOc1cn2nc(CCC(C)(C)O)cc2cc1NC(=O)c1cccn(C)c1=O [Compound 18, N-[6-ethoxy-2-(3-hydroxy-3-methyl-butyl)pyrazolo[1,5-a]pyridin-5-yl]-1-methyl-2-oxo-pyridine-3-carboxamide]
Mouse Hepatocyte stability (Perc. remaining at 90 min) (Mouse Hepatocyte): 93 Perc. | solubility thermodynamic at 24 h (Thermodynamic solubility; [1]): 68.9 µg/mL (≈ 173 µM) | solubility thermodynamic at 24 h (Thermodynamic solubility; [2]): 20.6 µg/mL (≈ 51.7 µM) | solubility thermodynamic at 24 h (Thermodynamic solubility; [3]): 84.1 µg/mL (≈ 211 µM)

CC(C)(O)CCc1cc2cc(NC(=O)c3cccc(C(F)F)n3)c(C(N)=O)cn2n1 [Compound 20, 5-[[6-(difluoromethyl)pyridine-2-carbonyl]amino]-2-(3-hydroxy-3-methyl-butyl)pyrazolo[1,5-a]pyridine-6-carboxamide]
Mouse Hepatocyte stability (Perc. remaining at 90 min) (Mouse Hepatocyte): 80.9 Perc. | solubility thermodynamic at 24 h (Thermodynamic solubility; [1]): 1.62 µg/mL (≈ 3.88 µM) | solubility thermodynamic at 24 h (Thermodynamic solubility; [2]): 3.09 µg/mL (≈ 7.4 µM)

COc1cn2nc(CCC(C)(C)O)cc2cc1NC(=O)c1cccn(C2CCC2)c1=O [Compound 21, 1-cyclobutyl-N-[2-(3-hydroxy-3-methyl-butyl)-6-methoxy-pyrazolo[1,5-a]pyridin-5-yl]-2-oxo-pyridine-3-carboxamide]
Mouse Hepatocyte stability (Perc. remaining at 90 min) (Mouse Hepatocyte): 49.45 Perc. | solubility thermodynamic at 24 h (Thermodynamic solubility; [2]): 16.4 µg/mL (≈ 38.6 µM)
